# Experimental data: US6486206B1, “Mechanical and pharmacologic therapies to treat cardiac arrest” (CPRx Inc., priority 1997, dated 2002)
# Test system: porcine model of ventricular fibrillation
# Conditions: pigs, standard CPR, 2 minutes after drug administration
# Experimental: Vital organ blood flow was also assessed after four minutes of ventricular fibrulation, four minutes of standard CPR, and two minutes after drug administration.
structure (smiles),measurement,value
CNC[C@H](O)c1ccc(O)c(O)c1 [epinephrine],endocardial:epicardial ratio (mean±SEM),0.81±0.21
